Experiment: gradient 5% acetonitrile 3 min, to 50% in 2 min, to 85% in 15 min, held 3 min, 100 µL/min
Conditions: column: Zorbax Extend-C18 2.1 x 50 mm; eluents: water / acetonitrile, 0.1% formic acid
Outline: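 Retention time was recorded from adduct peaks, which were picked computationally and each inspected manually. Pure standards ran in mixtures of ~100 molecules on HPLC coupled to a quadrupole time-of-flight mass spectrometer, in positive and negative ionization mode, through a Zorbax Extend-C18 column (2.1 × 50 mm, 1.8 μm) at 100 μL/min. Eluents were water and acetonitrile, each with 0.1% formic acid.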

Row | SMILES | RP-LC retention time [s]
1 | Cc1csc(C(=O)Nc2ccc(N3CCCN(C(=O)C4CC4)CC3)cc2)c1 | 735
2 | CCCNC(=O)Cn1cnc2sc(C(=O)NC3CCCC(C)C3C)c(C)c2c1=O (configuration not stated) | 857
3 | COc1ccc(-c2noc(Cn3nc(-c4ccccc4)ccc3=O)n2)c(OC)c1 | 880
4 | CCOC(=O)c1cc(S(=O)(=O)N2CCCC2C(=O)Nc2ccc(C(C)C)cc2)cn1C (configuration not stated) | 1070
5 | Cc1cc(C)c(S(=O)(=O)N2CCC(c3cc(N)on3)CC2)cc1C | 879
6 | CC(C)c1noc(C2CCCN(C(=O)NC3CCCCC3)CCC(=O)NCC2)n1 (configuration not stated) | 752
7 | CS(=O)(=O)c1nc2ccc(NS(=O)(=O)c3ccc4c(c3)CCC4)cc2s1 | 987
8 | O=C(Nc1cccc(OC(F)(F)F)c1)C1(CCO)CCN(c2ncccn2)C1 (configuration not stated) | 661
9 | CCC(=O)N1CCc2cc(N3CC(C(=O)N4CCN(C)CC4)CC3=O)ccc21 (configuration not stated) | 563
10 | CSc1ccc(-c2nc3cnccn3c2Nc2cccc(C(=O)NCCN(C)C)c2)cc1 | 605
11 | CN(CCCNC(=O)c1ccc2c(c1)NC(=O)C1CCCCN21)C1CCCCC1 (configuration not stated) | 623
12 | COc1ccc(Cl)cc1NC(=O)N1CCC(OC2CCN(S(C)(=O)=O)CC2)CC1 | 811
13 | Fc1ccc(OCc2nc(-c3cccc(-c4ccn[nH]4)c3)no2)cc1 | 939
14 | Cc1csc(-c2ccc(CNC(=O)c3ccnn3C)cc2)n1 | 772
15 | COc1cccc(Nc2c(-c3cccc(O)c3)nc3cnccn23)c1 | 929
16 | O=S(=O)(NC1CCCCCC1)c1ccc(-c2nnc(C3CC3)o2)o1 | 920
17 | COc1ccc2[nH]c(-c3ccccc3)cc2c1 | 1040
18 | COc1cccc(OC)c1CN1CC(n2cnnc2-c2cccnc2)C1 | 548
19 | CS(=O)(=O)N1CCC(OC2CCN(C(=O)NCc3ccccc3)CC2)CC1 | 704

Row | SMILES | RP-LC retention time [s]
20 | Cc1ccn2c(NC(=O)COc3ccc(Cl)cc3)c(-c3ccc(F)cc3)nc2c1 | 759
21 | O=C1/C(=C\c2cccs2)Oc2ccccc21 | 958
22 | COc1ccc(CC(=O)NC2CCN(c3cc(-c4ccccc4)[nH]n3)C2)cc1OC (configuration not stated) | 659
23 | COc1ccc(NC(=O)N2CCC3(CC2)NC(=O)c2cc(C)ccc2N3C)cc1 | 742
24 | Cc1ccc2oc(C(=O)Nc3ccc(-n4cnnn4)cc3)c(C)c2c1 | 933
25 | CC(=O)c1cccc(NC(=O)c2cc(Cl)ccc2Cl)c1 | 848
26 | CC(NC(=O)c1cnc(-c2ccccc2)nc1-c1ccncc1)c1ccc(F)cc1 (configuration not stated) | 868
27 | COc1cc(C(=O)NCCOc2ccc(F)cc2)c([N+](=O)[O-])cc1OC | 777
28 | COC(=O)c1ncn2c1C(=O)N(c1ccc(F)cc1)C(C)(C(=O)NCc1ccccc1)C2 (configuration not stated) | 691
29 | Cc1cccc(N2CCN(C(=O)CC3COc4ccccc4NC3=O)CC2)c1C (configuration not stated) | 861
30 | O=C(CCc1nc2ccccc2n(CC(=O)Nc2ccc3c(c2)OCO3)c1=O)NCc1ccccc1 | 797
31 | CCOC(=O)c1noc2ncnc(Nc3cc(F)ccc3F)c12 | 799
32 | CC(C)OCCCNC(=O)C1CCN(S(=O)(=O)c2ccc3c(c2)CCCC(=O)N3)CC1 | 674
33 | N#CCn1nc2n(c1=O)CCN(S(=O)(=O)c1cccc3cccnc13)CC2 | 702
34 | COc1ccc(N2CCN(C(=O)C34CCC(C)(C(=O)C3)C4(C)C)CC2)cc1 (configuration not stated) | 784
35 | CCOc1ccc(-c2csc(Nc3ccc(F)cn3)n2)cc1 | 1100
36 | O=C(NCCN1CCCCC1)C1CCN(c2nccnc2Sc2ccccc2)CC1 | 666
37 | Cc1ccc(NC(=O)CSc2cc(N3CCC(C)CC3)ncn2)c(C)c1 | 1100

From the METLIN SMRT retention time set (Domingo-Almenara et al. 2019)
